Assay results as given in patent publication US20250136722A1, “CYTOTOXICITY TARGETING CHIMERAS” (GLAXOSMITHKLINE INTELLECTUAL PROPERTY DEVELOPMENT LIMITED, priority 2021, published 2025).
Values joined by “and” are separate entries in the source; they are usually repeats but may differ in a detail not shown here. Equal values may be shown once.

Key:
[1] = target: T1, CHOK1 cells engineered to overexpress human CCR2 (Homo sapiens, UniProt P41597); test: Antibody dependent cellular cytotoxicity (ADCC) reporter assay (Example 199); format: cell-based; details: with anti-cotinine antibody SEQ ID NO: 11/12; CHOK1-human CCR2 target cells, Jurkat FcγRIIIa NFAT-luciferase reporter cells; 12-18 hours; read-out: ADCC Reporter Assay pEC50 (converted)
T1 construct: expressed in transfected cells; host or cells: CHOK1 cells
Procedure, shortened: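 Potency is reported as pEC50 from a nonlinear fit, averaged over runs, using luciferase signal divided by that of compound-free wells. The readout comes from NFAT-luciferase Jurkat cells expressing FcγRIIIa, mixed for 12–18 h with human CCR2-overexpressing CHOK1 cells, 1 pM–10 μM ARM compound and 0.01–200 μg/mL Fc-enhanced anti-cotinine IgG1.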

[2] = target: Anti-cotinine antibody (SEQ ID NO: 11 / SEQ ID NO: 12, rabbit variable region with human IgG1 Fc domain); test: Binding of anti-cotinine antibody to ARM compounds by SPR, Biacore T200, 37° C. (Example 202); details: pH 7.4, rabbit variable region/human IgG1 Fc antibody captured on protein A
Procedure, shortened: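 Run at 37° C. in 10 mM HEPES pH 7.4, 150 mM NaCl, 0.005% P20, 1% DMSO. Compound titrated from 200 nM (five 3-fold steps) over protein A-captured antibody, with 200/2000 s association/dissociation. 1:1 kinetic fit gave kon, koff, Kd and residence time (1/koff); pKd averaged where runs repeated.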

[3] = target: human alpha1 nicotinic acetylcholine (nACh) receptor (Homo sapiens, UniProt P02708+Q07001); test: Nicotinic acetylcholine receptor antagonism assay, IONFlux automated patch clamp (Example 203); format: cell-based; details: for Emax at 10 µM: maximum percentage antagonism at maximum concentration tested 10 μM; for Emax at 10 µM / Emax at 100 µM: read-out: Maximum Response (%); for IC50: nAChR antagonism, ACh stimulated, patch clamp; for Emax at 100 µM: maximum percentage antagonism at maximum concentration tested 100 μM
Procedure, shortened: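 Human α1 nAChR-expressing cells were preincubated with compound (top 10 μM or 100 μM), then stimulated with 10 mM ACh; peak currents were recorded by IONFlux automated patch clamp. Percent inhibition versus ACh-alone control was vehicle- and rundown-corrected, then fitted to give IC50, with maximal antagonism at the top concentration; recordings with control current <500 pA were excluded.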

Chain of human alpha1 nicotinic acetylcholine (nACh) receptor (P02708 21-457): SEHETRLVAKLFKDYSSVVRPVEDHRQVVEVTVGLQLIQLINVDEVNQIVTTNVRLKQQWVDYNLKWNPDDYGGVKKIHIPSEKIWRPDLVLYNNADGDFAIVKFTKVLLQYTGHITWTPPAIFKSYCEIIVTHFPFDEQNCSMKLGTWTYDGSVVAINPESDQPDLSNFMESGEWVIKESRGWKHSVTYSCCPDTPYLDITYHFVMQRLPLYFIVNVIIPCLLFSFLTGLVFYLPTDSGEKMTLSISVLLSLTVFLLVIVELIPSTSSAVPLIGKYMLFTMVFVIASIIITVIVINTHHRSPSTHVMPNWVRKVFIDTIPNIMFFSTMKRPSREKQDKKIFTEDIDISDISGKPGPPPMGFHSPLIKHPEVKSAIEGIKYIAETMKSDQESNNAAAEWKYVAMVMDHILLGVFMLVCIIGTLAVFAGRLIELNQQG
Chain of human alpha1 nicotinic acetylcholine (nACh) receptor (P11230 24-501 partner): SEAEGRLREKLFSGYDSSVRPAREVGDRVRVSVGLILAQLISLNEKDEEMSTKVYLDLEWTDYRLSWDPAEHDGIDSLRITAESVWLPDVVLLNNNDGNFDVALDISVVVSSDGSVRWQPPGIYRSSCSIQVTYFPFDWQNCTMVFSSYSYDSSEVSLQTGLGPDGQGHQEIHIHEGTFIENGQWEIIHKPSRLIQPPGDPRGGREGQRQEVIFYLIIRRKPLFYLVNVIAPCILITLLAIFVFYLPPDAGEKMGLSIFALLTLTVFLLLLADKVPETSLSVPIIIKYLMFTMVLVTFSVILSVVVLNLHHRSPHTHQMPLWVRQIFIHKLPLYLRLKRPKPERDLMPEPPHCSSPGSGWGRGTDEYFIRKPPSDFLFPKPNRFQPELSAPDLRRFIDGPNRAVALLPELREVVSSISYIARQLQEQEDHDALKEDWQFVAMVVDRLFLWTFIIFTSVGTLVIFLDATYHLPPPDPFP
Chain of human alpha1 nicotinic acetylcholine (nACh) receptor (Q07001 22-517): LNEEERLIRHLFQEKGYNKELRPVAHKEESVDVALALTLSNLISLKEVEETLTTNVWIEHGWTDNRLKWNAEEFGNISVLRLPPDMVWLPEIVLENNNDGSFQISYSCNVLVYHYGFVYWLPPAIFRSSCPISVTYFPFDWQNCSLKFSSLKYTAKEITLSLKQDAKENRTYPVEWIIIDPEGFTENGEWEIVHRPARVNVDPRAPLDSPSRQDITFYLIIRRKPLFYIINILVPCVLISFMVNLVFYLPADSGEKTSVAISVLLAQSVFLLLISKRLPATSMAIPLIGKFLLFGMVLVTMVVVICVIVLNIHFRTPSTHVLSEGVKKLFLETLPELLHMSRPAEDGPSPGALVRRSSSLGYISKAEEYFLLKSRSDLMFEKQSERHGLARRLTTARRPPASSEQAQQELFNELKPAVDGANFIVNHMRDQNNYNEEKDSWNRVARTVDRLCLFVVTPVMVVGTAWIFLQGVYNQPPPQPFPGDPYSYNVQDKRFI

| Structure (SMILES) | EC50 [1] | pKd of Antibody for ARM Compound of Formula (I) [2] | Emax at 10 µM [3] [%] | IC50 [3] [nM] | Emax at 100 µM [3] [%] |
| --- | --- | --- | --- | --- | --- |
| CC(C)N(C)[C@@H]1CC[C@H](N2CC[C@H](Nc3ncnc4ccc(C(F)(F)F)cc34)C2=O)[C@H](NC(=O)COCCOCCNC(=O)CCOCCOCCNC(=O)[C@H]2CC(=O)N(C)[C@@H]2c2cccnc2)C1 [Example 77] | 5.52 nM | 9.152 | 19.6 | > 10000 |  |
| CC(C)N(C)[C@@H]1CC[C@H](N2CC[C@H](Nc3ncnc4ccc(C(F)(F)F)cc34)C2=O)[C@H](NC(=O)[C@H]2CC[C@@H](NC(=O)COCCNC(=O)COCCNC(=O)[C@H]3CC(=O)N(C)[C@@H]3c3cccnc3)CC2)C1 [Example 99] | 1.99 nM | 9.062 |  | 33100 | 71.1 |
| CC(C)N(C)[C@@H]1CC[C@H](N2CC[C@H](Nc3ncnc4ccc(C(F)(F)F)cc34)C2=O)[C@H](NC(=O)CCOCCNC(=O)COCCNC(=O)COCCNC(=O)[C@H]2CC(=O)N(C)[C@@H]2c2cccnc2)C1 [Example 102, (2S,3S)-N-(18-(((1R,2S,5R)-5-(Isopropyl(methyl)amino)-2-((S)-2-oxo-3-((6-(trifluoromethyl)quinazolin-4-yl)amino)pyrrolidin-1-yl)cyclohexyl)amino)-5,11,18-trioxo-3,9,15-trioxa-6,12-diazaoctadecyl)-1-methyl-5-oxo-2-(pyridin-3-yl)pyrrolidine-3-carboxamide] | 1.26 nM | 9.076 |  | 66100 | 61.3 |
| CC(C)N(C)[C@@H]1CC[C@H](N2CC[C@H](Nc3ncnc4ccc(C(F)(F)F)cc34)C2=O)[C@H](NC(=O)CCOCCNC(=O)CCOCCNC(=O)COCCNC(=O)[C@H]2CC(=O)N(C)[C@@H]2c2cccnc2)C1 [Example 105] | 0.794 nM | 9.0705 |  | 38900 | 75.7 |
| CC(C)N(C)[C@@H]1CC[C@H](N2CC[C@H](Nc3ncnc4ccc(C(F)(F)F)cc34)C2=O)[C@H](NC(=O)CCOCCNC(=O)[C@H]2CC[C@@H](NC(=O)COCCNC(=O)[C@H]3CC(=O)N(C)[C@@H]3c3cccnc3)CC2)C1 [Example 107, (2S,3S)-N-(2-(2-(((1S,4R)-4-((2-(3-(((1R,2S,5R)-5-(Isopropyl(methyl)amino)-2-((S)-2-oxo-3-((6-(trifluoromethyl)quinazolin-4-yl)amino)pyrrolidin-1-yl)cyclohexyl)amino)-3-oxopropoxy)ethyl)carbamoyl)cyclohexyl)amino)-2-oxoethoxy)ethyl)-1-methyl-5-oxo-2-(pyridin-3-yl)pyrrolidine-3-carboxamide] | 0.158 nM | 9.161 | 12.2 | > 10000 |  |
| CC(C)N(C)[C@@H]1CC[C@H](N2CC[C@H](Nc3ncnc4ccc(C(F)(F)F)cc34)C2=O)[C@H](NC(=O)COCCNC(=O)COCCNC(=O)COCCNC(=O)[C@H]2CC(=O)N(C)[C@@H]2c2cccnc2)C1 [Example 111, (2S,3S)-N-(17-(((1R,2S,5R)-5-(Isopropyl(methyl)amino)-2-((S)-2-oxo-3-((6-(trifluoromethyl)quinazolin-4-yl)amino)pyrrolidin-1-yl)cyclohexyl)amino)-5,11,17-trioxo-3,9,15-trioxa-6,12-diazaheptadecyl)-1-methyl-5-oxo-2-(pyridin-3-yl)pyrrolidine-3-carboxamide] | 6.31 nM | 9.0855 |  | 52900 | 67.6 |
| CC(C)N(C)[C@@H]1CC[C@H](N2CC[C@H](Nc3ncnc4ccc(C(F)(F)F)cc34)C2=O)[C@H](NC(=O)CNC(=O)[C@H]2CC[C@@H](NC(=O)CCOCCOCCNC(=O)[C@H]3CC(=O)N(C)[C@@H]3c3cccnc3)CC2)C1 [Example 137, (2S,3S)-N-(2-(2-(3-(((1S,4s)-4-((2-(((1R,2S,5R)-5-(Isopropyl(methyl)amino)-2-((S)-2-oxo-3-((6-(trifluoromethyl)quinazolin-4-yl)amino)pyrrolidin-1-yl)cyclohexyl)amino)-2-oxoethyl)carbamoyl)cyclohexyl)amino)-3-oxopropoxy)ethoxy)ethyl)-1-methyl-5-oxo-2-(pyridin-3-yl)pyrrpolidine-3-carboxamide] | 1.67 nM | 9.336 |  | 70000 | 62 |
| CC(C)N(C)[C@@H]1CC[C@H](N2CC[C@H](Nc3ncnc4ccc(C(F)(F)F)cc34)C2=O)[C@H](NC(=O)[C@H]2CC[C@@H](NC(=O)CCOCCNC(=O)CCNC(=O)CCNC(=O)[C@H]3CC(=O)N(C)[C@@H]3c3cccnc3)CC2)C1 [Example 182, (2S,3S)-N-(3-((3-((2-(3-(((1S,4s)-4-(((1R,2S,5R)-5-(Isopropyl(methyl)amino)-2-((S)-2-oxo-3-((6-(trifluoromethyl)quinazolin-4-yl)amino)pyrrolidin-1-yl)cyclohexyl)carbamoyl)cyclohexyl)amino)-3-oxopropoxy)ethyl)amino)-3-oxopropyl)amino)-3-oxopropyl)-1-methyl-5-oxo-2-(pyridin-3-yl)pyrrolidine-3-carboxamide] | 0.514 nM and 0.191 nM | 9.117 |  | 76400 | 61.9 |
| CC(C)N(C)[C@@H]1CC[C@H](N2CC[C@H](Nc3ncnc4ccc(C(F)(F)F)cc34)C2=O)[C@H](NC(=O)CCOCCC(=O)N[C@H]2C[C@@H](C(=O)NCCOCCNC(=O)[C@H]3CC(=O)N(C)[C@@H]3c3cccnc3)C2)C1 [Example 186, (2S,3S)-N-(2-(2-((1S,3R)-3-(3-(3-(((1R,2S,5R)-5-(Isopropyl(methyl)amino)-2-((S)-2-oxo-3-((6-(trifluoromethyl)quinazolin-4-yl)amino)pyrrolidin-1-yl)cyclohexyl)amino)-3-oxopropoxy)propanamido)cyclobutane-1-carboxamido)ethoxy)ethyl)-1-methyl-5-oxo-2-(pyridin-3-yl)pyrrolidine-3-carboxamide] | 0.151 nM | 9.1435 |  | 31800 | 55.2 |
| CC(C)N(C)[C@@H]1CC[C@H](N2CC[C@H](Nc3ncnc4ccc(C(F)(F)F)cc34)C2=O)[C@H](NC(=O)CCOCCC(=O)N[C@H]2C[C@H](C(=O)NCCOCCNC(=O)[C@H]3CC(=O)N(C)[C@@H]3c3cccnc3)C2)C1 [Example 187] | 0.324 nM | 9.104 |  | 71100 | 63.7 |
| CC(C)N(C)[C@@H]1CC[C@H](N2CC[C@H](Nc3ncnc4ccc(C(F)(F)F)cc34)C2=O)[C@H](NC(=O)CCCN2CCC3(CCN(CCCNC(=O)[C@H]4CC(=O)N(C)[C@@H]4c4cccnc4)CC3)CC2)C1 [Example 191, (2S,3S)-N-(3-(9-(4-(((1R,2S,5R)-5-(Isopropyl(methyl)amino)-2-((S)-2-oxo-3-((6-(trifluoromethyl)quinazolin-4-yl)amino)pyrrolidin-1-yl)cyclohexyl)amino)-4-oxobutyl)-3,9-diazaspiro[5.5]undecan-3-yl)propyl)-1-methyl-5-oxo-2-(pyridin-3-yl)pyrrolidine-3-carboxamide] | 0.424 nM | 9.68 | 74 | 2950 |  |
| CC(C)N(C)[C@@H]1CC[C@H](N2CC[C@H](Nc3ncnc4ccc(C(F)(F)F)cc34)C2=O)[C@H](NC(=O)[C@H]2CC[C@H](C(=O)NCCCOCCCCOCCCNC(=O)[C@H]3CC(=O)N(C)[C@@H]3c3cccnc3)CC2)C1 [Example 194, (1 r,4R)-N^1-((1R,2S,5R)-5-(Isopropyl(methyl)amino)-2-((S)-2-oxo-3-((6-(trifluoromethyl)quinazolin-4-yl)amino)pyrrolidin-1-yl)cyclohexyl)-N^4-(3-(4-(3-((2S,3S)-1-methyl-5-oxo-2-(pyridin-3-yl)pyrrolidine-3-carboxamido)propoxy)butoxy)propyl)cyclohexane-1,4-dicarboxamide] | 0.275 nM | 9.5415 |  | > 100000 | 44.9 |
| CC(C)N(C)[C@@H]1CC[C@H](N2CC[C@H](Nc3ncnc4ccc(C(F)(F)F)cc34)C2=O)[C@H](NC(=O)[C@H]2CC[C@H](C3CCN(C(=O)CCOCCOCCNC(=O)[C@H]4CC(=O)N(C)[C@@H]4c4cccnc4)CC3)CC2)C1 [compound 73] | 7.94 nM | 9.8185 | 4.1 | > 10000 |  |
